We go through nine molecules from patent US20260116910A1, “POLYCYCLIC COMPOUNDS AND METHODS THEREOF” (HEPAITECH (BEIJING) BIOPHARMA TECHNOLOGY CO., LTD., priority 2021, published 2026).

One test addresses T1, human FXR (NR1H4) (Homo sapiens, UniProt Q96RI1).
T1 sequence (Q96RI1 1-476 isoform Q96RI1-1): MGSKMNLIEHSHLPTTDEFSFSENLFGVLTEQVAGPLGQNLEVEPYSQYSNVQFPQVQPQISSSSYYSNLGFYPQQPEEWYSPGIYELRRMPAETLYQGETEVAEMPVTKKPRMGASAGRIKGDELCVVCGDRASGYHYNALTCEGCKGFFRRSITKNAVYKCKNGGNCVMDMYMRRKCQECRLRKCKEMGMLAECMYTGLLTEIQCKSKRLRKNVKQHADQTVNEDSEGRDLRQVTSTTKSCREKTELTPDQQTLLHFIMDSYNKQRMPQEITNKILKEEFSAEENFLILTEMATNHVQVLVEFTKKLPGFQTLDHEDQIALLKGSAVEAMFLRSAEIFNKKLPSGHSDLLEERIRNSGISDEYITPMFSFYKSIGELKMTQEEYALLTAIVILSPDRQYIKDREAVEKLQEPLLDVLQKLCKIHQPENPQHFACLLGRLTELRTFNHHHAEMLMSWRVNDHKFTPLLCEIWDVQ
In words: Human FXR (NR1H4) agonist assessment, FXRE-NanoLuc reporter in HEK293T cells. Type of test: cell-based. Conditions: FXR activation, HEK293T FXRE-NanoLuc reporter, 24 hr; for EC50: read-out: EC50. An outline of the steps: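 HEK293T cells stably expressing human FXR with an FXRE-NanoLuc reporter were treated with compounds for 24 hr at 37 °C, with 0.01% DMSO as negative control. Medium was read for luminescence after 5 min with coelenterazine. EC50 was fitted by sigmoid to concentration-response data.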

The next test addresses MRGPRX4 (Homo sapiens, UniProt Q96LA9). In words: MRGPRX4 activation, Fluo-8 Ca2+ FLIPR assay in HEK293T cells stably expressing MRGPRX4. The format is cell-based. Also on record: key to MRGPRX4 activation, Average / MRGPRX4 activation, Ave.: fluorescence change dF/F0. Conditions: for EC50: MRGPRX4 activation, Ca2+ fluorescence, no activation in tested range reported as III, read-out: Activity (EC50 μM). The essentials: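 Cells seeded overnight to >95% confluence, loaded 40-60 min at room temperature with 2 μM Fluo-8 AM, then kept in HHBS. Baseline read 30 s, compound added, signal followed 150 s more.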

Chain of MRGPRX4 (Q96LA9 whole entry): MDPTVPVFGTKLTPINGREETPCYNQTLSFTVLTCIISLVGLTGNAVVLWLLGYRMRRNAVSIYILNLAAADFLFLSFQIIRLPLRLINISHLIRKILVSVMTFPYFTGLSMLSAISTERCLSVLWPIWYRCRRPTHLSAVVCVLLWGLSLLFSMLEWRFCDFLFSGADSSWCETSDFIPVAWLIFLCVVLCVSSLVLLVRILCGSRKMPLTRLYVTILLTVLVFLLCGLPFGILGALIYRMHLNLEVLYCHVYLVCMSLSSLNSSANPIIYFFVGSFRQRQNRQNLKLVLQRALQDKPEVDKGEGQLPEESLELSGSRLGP

In general, EC50 refers to the concentration needed to bring the measured effect to its halfway point. For the molecule `CC[C@H]1[C@@H](O)[C@@H]2[C@H](CC[C@]3(C)[C@@H]([C@H](C)CNC(=O)NS(=O)(=O)c4ccc(C(C)(C)CF)cc4)CC[C@@H]23)[C@@]2(C)CCCC[C@@H]12` [20-1], the “Efficacy (maximum measured induction of NanoLuc, normalized to CDCA set as 100%)” value on human FXR (NR1H4) is “A (efficacy >400%)”. For the same molecule, the concentration for a half-maximal effect (EC50) at human FXR (NR1H4) was less than 1 µM; at MRGPRX4, more than 100 µM. Besides, the “MRGPRX4 activation, Average” value was 0.018 at MRGPRX4 (E3-9, Conc. (Log[M]) −4.0); 0.016 on MRGPRX4 (E3-9, Conc. (Log[M]) −4.5); 0.019 at MRGPRX4 (E3-9, Conc. (Log[M]) −5.0); 0.019 on MRGPRX4 (E3-9, Conc. (Log[M]) −5.4); 0.021 at MRGPRX4 (E3-9, Conc. (Log[M]) −5.9).

Take `CC[C@H]1[C@@H](O)[C@@H]2[C@H](CC[C@]3(C)[C@@H]([C@H](C)CNC(=O)NS(=O)(=O)c4ccc5c(c4)CCC(C)(C)O5)CC[C@@H]23)[C@@]2(C)CCCC[C@@H]12` [20-2]: the “Efficacy (maximum measured induction of NanoLuc, normalized to CDCA set as 100%)” value at human FXR (NR1H4) is “B (300%<efficacy <=400%)”. Besides, the concentration giving a half-maximal response (EC50) at human FXR (NR1H4) is 1 to 10 µM; at MRGPRX4, more than 100 µM. For the same molecule, the “MRGPRX4 activation, Average” value at MRGPRX4 (E3-9, Conc. (Log[M]) −4.0) amounted to 0.025; at MRGPRX4 (E3-9, Conc. (Log[M]) −4.5), 0.012; at MRGPRX4 (E3-9, Conc. (Log[M]) −5.0) it was 0.021; on MRGPRX4 (E3-9, Conc. (Log[M]) −5.4), 0.019; on MRGPRX4 (E3-9, Conc. (Log[M]) −5.9) it was 0.025.

Turning to `CC[C@H]1[C@@H](O)[C@@H]2[C@H](CC[C@]3(C)[C@@H]([C@H](C)CNC(=O)NS(=O)(=O)c4ccc(N5CCCCC5)nc4)CC[C@@H]23)[C@@]2(C)CCCC[C@@H]12` [20-3], the “Efficacy (maximum measured induction of NanoLuc, normalized to CDCA set as 100%)” value at human FXR (NR1H4) is on record as “B (300%<efficacy <=400%)”. For the same molecule, the EC50 on human FXR (NR1H4) is 1 to 10 µM; at MRGPRX4, more than 100 µM. In addition, the “Activation (%)” value at MRGPRX4 (second E3-8-1, 4.6 nM, n = 1) stood at 3.48%; at MRGPRX4 (second E3-8-1, 4.6 nM, n = 2) it was 2.86%; on MRGPRX4 (second E3-8-1, 14 nM, n = 1) it was 3.48%; at MRGPRX4 (second E3-8-1, 14 nM, n = 2) it was 3.79%; at MRGPRX4 (second E3-8-1, 41 nM, n = 1) it was 3.48%; on MRGPRX4 (second E3-8-1, 41 nM, n = 2) it was 3.48%. The “Activation (%)” value at MRGPRX4 (second E3-8-1, 123 nM, n = 1) is 3.17%; on MRGPRX4 (second E3-8-1, 123 nM, n = 2), 3.79%; at MRGPRX4 (second E3-8-1, 370 nM, n = 1), 3.17%; at MRGPRX4 (second E3-8-1, 370 nM, n = 2) it was 3.17%; at MRGPRX4 (second E3-8-1, 1111 nM, n = 1) it was 3.79%; on MRGPRX4 (second E3-8-1, 1111 nM, n = 2) it was 3.48%. Moreover, the “Activation (%)” value on MRGPRX4 (second E3-8-1, 3333 nM, n = 1) was 2.55%; at MRGPRX4 (second E3-8-1, 3333 nM, n = 2), 3.17%; on MRGPRX4 (second E3-8-1, 10000 nM, n = 1), 2.55%; on MRGPRX4 (second E3-8-1, 10000 nM, n = 2) it was 3.17%; at MRGPRX4 (second E3-8-1, 30000 nM, n = 1) it was 1.63%; at MRGPRX4 (second E3-8-1, 30000 nM, n = 2), 2.24%.

With `C[C@H](CC(=O)O)[C@H]1CC[C@H]2[C@@H]3CC[C@@H]4C[C@H](O)CC[C@]4(C)[C@H]3C[C@H](O)[C@]12C` [RC-1], at human FXR (NR1H4), the “Efficacy (maximum measured induction of NanoLuc, normalized to CDCA set as 100%)” value is on record as “B (300%<efficacy <=400%)”. In addition, the EC50 is 1 to 10 µM on human FXR (NR1H4) and less than 50 µM at MRGPRX4. Further, the “MRGPRX4 activation, fluorescence change (dF/F0), Average” value (from here on “MRGPRX4 activation, fluorescence change”) at MRGPRX4 (Conc. (Log[M]) −4) was 0.329; on MRGPRX4 (Conc. (Log[M]) −4.5) it was 0.080; at MRGPRX4 (Conc. (Log[M]) −5), −0.029; on MRGPRX4 (Conc. (Log[M]) −5.5), −0.019; at MRGPRX4 (Conc. (Log[M]) −6), −0.015; on MRGPRX4 (Conc. (Log[M]) −7) it was −0.010. Moreover, the “MRGPRX4 activation, fluorescence change” value was −0.003 at MRGPRX4 (Conc. (Log[M]) −8) and −0.005 at MRGPRX4 (Conc. (Log[M]) −9).

For `C[C@H](CCCC(=O)O)[C@H]1CC[C@H]2[C@@H]3CC[C@@H]4C[C@H](O)CC[C@]4(C)[C@H]3C[C@H](O)[C@]12C` [RC-2], the “Efficacy (maximum measured induction of NanoLuc, normalized to CDCA set as 100%)” value at human FXR (NR1H4) was “B (300%<efficacy <=400%)”. In addition, the EC50 on human FXR (NR1H4) is 1 to 10 µM; at MRGPRX4, less than 50 µM. Further, the “MRGPRX4 activation, fluorescence change” value was 0.242 on MRGPRX4 (Conc. (Log[M]) −4); 0.159 on MRGPRX4 (Conc. (Log[M]) −4.5); 0.126 at MRGPRX4 (Conc. (Log[M]) −5); 0.034 at MRGPRX4 (Conc. (Log[M]) −5.5); 0.017 at MRGPRX4 (Conc. (Log[M]) −6); −0.012 on MRGPRX4 (Conc. (Log[M]) −7). The “MRGPRX4 activation, fluorescence change” value at MRGPRX4 (Conc. (Log[M]) −8) is −0.010; on MRGPRX4 (Conc. (Log[M]) −9), −0.018.

Regarding `C[C@]12CC[C@@H](O)C[C@H]1CC[C@@H]1[C@@H]2C[C@H](O)[C@]2(C)[C@@H](CCCCCC(=O)O)CC[C@@H]12` [RC-3], the “Efficacy (maximum measured induction of NanoLuc, normalized to CDCA set as 100%)” value on human FXR (NR1H4) is recorded as “B (300%<efficacy <=400%)”. Further, the concentration for a half-maximal effect (EC50) is 1 to 10 µM at human FXR (NR1H4) and less than 50 µM at MRGPRX4. In addition, the “MRGPRX4 activation, fluorescence change” value is 0.225 on MRGPRX4 (Conc. (Log[M]) −4); 0.233 on MRGPRX4 (Conc. (Log[M]) −4.5); 0.182 on MRGPRX4 (Conc. (Log[M]) −5); 0.026 at MRGPRX4 (Conc. (Log[M]) −5.5); −0.007 at MRGPRX4 (Conc. (Log[M]) −6); −0.027 on MRGPRX4 (Conc. (Log[M]) −7). The “MRGPRX4 activation, fluorescence change” value is listed as −0.008 on MRGPRX4 (Conc. (Log[M]) −8) and −0.013 on MRGPRX4 (Conc. (Log[M]) −9).

With `C[C@H](CCC(=O)O)[C@H]1CC[C@H]2[C@@H]3CC[C@@H]4C[C@@H](O)CC[C@]4(C)[C@H]3C[C@H](O)[C@]12C` [RC-5], the “Efficacy (maximum measured induction of NanoLuc, normalized to CDCA set as 100%)” value at human FXR (NR1H4) is reported as “B (300%<efficacy <=400%)”. Moreover, the EC50 on human FXR (NR1H4) was in the range of 1 to 10 µM. The “MRGPRX4 activation, fluorescence change” value at MRGPRX4 (Conc. (Log[M]) −4) was 0.300; at MRGPRX4 (Conc. (Log[M]) −4.5) it was 0.228; at MRGPRX4 (Conc. (Log[M]) −5) it was 0.166; on MRGPRX4 (Conc. (Log[M]) −5.5), 0.030; on MRGPRX4 (Conc. (Log[M]) −6), −0.009; at MRGPRX4 (Conc. (Log[M]) −7) it was −0.017. Moreover, the “MRGPRX4 activation, fluorescence change” value is listed as −0.021 on MRGPRX4 (Conc. (Log[M]) −8) and −0.007 on MRGPRX4 (Conc. (Log[M]) −9).

`C[C@H](CCC(=O)O)[C@H]1CC[C@H]2[C@@H]3CC[C@@H]4C[C@@H](O)CC[C@]4(C)[C@H]3C[C@@H](O)[C@]12C` [RC-6]: at human FXR (NR1H4), the “Efficacy (maximum measured induction of NanoLuc, normalized to CDCA set as 100%)” value was “B (300%<efficacy <=400%)”. The EC50 at human FXR (NR1H4) was in the range of 1 to 10 µM. Further, the “MRGPRX4 activation, fluorescence change” value is given as 0.259 at MRGPRX4 (Conc. (Log[M]) −4); 0.208 on MRGPRX4 (Conc. (Log[M]) −4.5); 0.145 at MRGPRX4 (Conc. (Log[M]) −5); 0.009 on MRGPRX4 (Conc. (Log[M]) −5.5); −0.013 at MRGPRX4 (Conc. (Log[M]) −6); −0.007 on MRGPRX4 (Conc. (Log[M]) −7). Moreover, the “MRGPRX4 activation, fluorescence change” value is recorded as −0.015 on MRGPRX4 (Conc. (Log[M]) −8) and −0.008 at MRGPRX4 (Conc. (Log[M]) −9).

For `C[C@H](CC/C=C/C(=O)O)[C@H]1CC[C@H]2[C@@H]3CC[C@@H]4C[C@H](O)CC[C@]4(C)[C@H]3C[C@H](O)[C@]12C` [RC-7], the “Efficacy (maximum measured induction of NanoLuc, normalized to CDCA set as 100%)” value on human FXR (NR1H4) was “C (100%<efficacy <=300%)”. In addition, the concentration giving a half-maximal response (EC50) on human FXR (NR1H4) is 1 to 10 µM; at MRGPRX4, less than 50 µM. In addition, the “MRGPRX4 activation, fluorescence change” value was 0.049 on MRGPRX4 (Conc. (Log[M]) −4); 0.030 on MRGPRX4 (Conc. (Log[M]) −4.5); −0.027 at MRGPRX4 (Conc. (Log[M]) −5); −0.038 on MRGPRX4 (Conc. (Log[M]) −5.5); −0.035 on MRGPRX4 (Conc. (Log[M]) −6); 0.007 at MRGPRX4 (Conc. (Log[M]) −7). In addition, the “MRGPRX4 activation, fluorescence change” value at MRGPRX4 (Conc. (Log[M]) −8) was −0.030; on MRGPRX4 (Conc. (Log[M]) −9), −0.005.
